Experimental data published in patent US7674801B2 (AstraZeneca AB, priority 2006, dated 2010).

Target: S. aureus (SAU) GyrB ATPase (Staphylococcus aureus, UniProt P0A0K8)
Experiment: S. aureus GyrB ATPase inhibition, ammonium molybdate/malachite green phosphate detection assay
Format: biochemical
Conditions: 10 compound concentrations; 500 μM ATP
Method in brief: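 E. coli GyrA and S. aureus GyrB (1.25 nM each) with 500 μM ATP and 5 μg/ml sheared salmon sperm DNA in 50 mM Hepes pH 7.5, 8.0 mM MgCl2. Released phosphate detected with ammonium molybdate/malachite green at 650 nm; 2% DMSO as 0% and 2 μM novobiocin as 100% inhibition; IC50 from 10 concentrations.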

Chain of S. aureus (SAU) GyrB ATPase (P0A0K8 whole entry): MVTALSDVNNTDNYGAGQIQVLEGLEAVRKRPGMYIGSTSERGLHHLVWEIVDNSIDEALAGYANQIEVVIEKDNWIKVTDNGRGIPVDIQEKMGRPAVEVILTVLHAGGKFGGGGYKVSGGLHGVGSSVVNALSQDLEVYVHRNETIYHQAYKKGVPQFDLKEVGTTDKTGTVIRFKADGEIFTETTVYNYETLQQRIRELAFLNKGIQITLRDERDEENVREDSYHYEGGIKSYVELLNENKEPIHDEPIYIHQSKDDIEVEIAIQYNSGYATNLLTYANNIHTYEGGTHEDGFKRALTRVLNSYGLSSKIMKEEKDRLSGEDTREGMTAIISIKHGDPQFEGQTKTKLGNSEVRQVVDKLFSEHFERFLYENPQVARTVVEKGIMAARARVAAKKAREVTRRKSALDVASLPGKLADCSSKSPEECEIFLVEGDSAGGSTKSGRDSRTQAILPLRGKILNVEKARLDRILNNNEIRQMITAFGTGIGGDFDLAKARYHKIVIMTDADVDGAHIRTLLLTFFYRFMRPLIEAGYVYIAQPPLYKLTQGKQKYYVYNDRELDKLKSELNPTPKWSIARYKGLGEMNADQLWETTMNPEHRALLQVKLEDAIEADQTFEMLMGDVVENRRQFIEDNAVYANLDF
Chain of S. aureus (SAU) GyrB ATPase (P0AES4 whole entry, further chain): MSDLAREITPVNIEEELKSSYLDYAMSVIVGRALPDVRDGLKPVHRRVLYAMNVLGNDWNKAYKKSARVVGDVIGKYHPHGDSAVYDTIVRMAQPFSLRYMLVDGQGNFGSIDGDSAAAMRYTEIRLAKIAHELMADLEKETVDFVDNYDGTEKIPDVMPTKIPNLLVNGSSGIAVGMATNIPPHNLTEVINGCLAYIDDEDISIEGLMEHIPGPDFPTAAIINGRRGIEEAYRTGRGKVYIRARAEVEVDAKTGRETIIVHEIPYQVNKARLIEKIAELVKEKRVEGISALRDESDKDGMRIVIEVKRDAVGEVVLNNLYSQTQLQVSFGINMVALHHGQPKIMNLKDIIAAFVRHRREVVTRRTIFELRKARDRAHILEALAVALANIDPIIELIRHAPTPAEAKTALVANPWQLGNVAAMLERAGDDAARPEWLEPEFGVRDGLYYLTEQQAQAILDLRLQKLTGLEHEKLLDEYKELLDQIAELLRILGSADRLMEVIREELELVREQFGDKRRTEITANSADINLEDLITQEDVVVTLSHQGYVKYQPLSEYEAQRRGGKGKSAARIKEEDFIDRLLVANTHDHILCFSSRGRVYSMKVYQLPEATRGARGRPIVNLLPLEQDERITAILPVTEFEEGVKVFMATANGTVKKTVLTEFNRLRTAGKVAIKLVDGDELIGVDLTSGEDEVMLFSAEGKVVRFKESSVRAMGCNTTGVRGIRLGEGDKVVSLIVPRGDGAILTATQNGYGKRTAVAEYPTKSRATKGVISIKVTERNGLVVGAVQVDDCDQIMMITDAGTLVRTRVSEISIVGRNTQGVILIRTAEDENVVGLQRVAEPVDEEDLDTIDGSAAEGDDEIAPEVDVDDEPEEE

Row | Compound | IC50
1 | CCCCNC(=O)c1nc(-c2ccc(NC(=O)NCC)nc2)sc1C(=O)NOC [Example 36, N^4-Butyl-2-(6-{[(ethylamino)carbonyl]amino}pyridin-3-yl)-N^5-methoxy-1,3-thiazole-4,5-dicarboxamide] | 16.8 nM

Same assay, conditions: compound concentration 12.5 μM; 12.5 µM

Row | Compound | S. aureus (SAU) GyrB ATPase % Inhibition
2 | CCNC(=O)Nc1ccc(-c2nc(-c3ncnn3C)c(C(=O)O)s2)cn1 [Example 147, 2-(6-{[(ethylamino)carbonyl]amino}pyridin-3-yl)-4-(1-methyl-1H-1,2,4-triazol-5-yl)-1,3-thiazole-5-carboxylic acid] | 94.65%
3 | CCNC(=O)Nc1ccc(-c2nc(-c3ncnn3C)c(C(=O)O)s2)cn1 [Example 90, 2-(6-{[(Ethylamino)carbonyl]amino}pyridin-3-yl)-4-(1-methyl-1H-1,2,4-triazol-5-yl)-1,3-thiazole-5-carboxylic acid] | 19.71%

Same assay, conditions: read-out: S. aureus (SAU) GyrB ATPase % Inhibition, compound concentration 12.5 μM

Row | Compound | inhibition at 12.5 µM
4 | CCNC(=O)Nc1ccc(-c2ccc(C(=O)OC)cn2)cn1 [Example 5, Methyl 6′-{[(ethylamino)carbonyl]amino}-2,3′-bipyridine-5-carboxylate] | 63.7%
5 | CCNC(=O)Nc1nc(-c2ccc(C(=O)O)cc2)cs1 [Example 33, 4-(2-{[(Ethylamino)carbonyl]amino}-1,3-thiazol-4-yl)benzoic acid] | 38.2%
6 | CCNC(=O)Nc1ccc(-c2cccc(C(=O)OC)c2)cn1 [Example 6, Methyl 3-(6-{[(ethylamino)carbonyl]amino}pyridin-3-yl)benzoate] | 99.7%
7 | CCCCNC(=O)c1sc(-c2ccc(NC(=O)NCC)nc2)nc1C(=O)N(C)C [Example 158, N^5-butyl-2-(6-{[(ethylamino)carbonyl]amino}pyridin-3-yl)-N^4,N^4-dimethyl-1,3-thiazole-4,5-dicarboxamide] | 92.6%
8 | CCNC(=O)Nc1ccc(-c2nc(C(=O)NC3CC3)c(C(=O)O)s2)cn1 [Example 25, 4-[(Cyclopropylamino)carbonyl]-2-(6-{[(ethylamino)carbonyl]amino}pyridin-3-yl)-1,3-thiazole-5-carboxylic acid] | 99.5%
9 | CCNC(=O)Nc1cc(-c2nc(C(F)(F)F)cs2)c(-c2cncc(C(=O)NC3CCCC3)c2)cn1 [Example 125, N-Cyclopentyl-6′-{[(ethylamino)carbonyl]amino}-4′-[4-(trifluoromethyl)-1,3-thiazol-2-yl]-3,3′-bipyridine-5-carboxamide] | 107%
10 | CCNC(=O)Nc1ccc(-c2nc(C(=O)NCCOC)c(C(=O)O)s2)cn1 [Example 91, 2-(6-{[(Ethylamino)carbonyl]amino}pyridin-3-yl)-4-{[(2-methoxyethyl)amino]carbonyl}-1,3-thiazole-5-carboxylic acid] | 101%
11 | CCNC(=O)Nc1cc(-c2cccc(C(=O)O)c2)ccn1 [Example 143, 3-(2-{[(ethylamino)carbonyl]amino}pyridin-4-yl)benzoic acid] | 99.1%
12 | CCNC(=O)Nc1ccc(-c2nc(C(=O)N(C)C)c(C(=O)N(C)C)s2)cn1 [Example 57, 2-[6-(3-Ethyl-ureido)-pyridin-3-yl]-thiazole-4,5-dicarboxylic acid bis-dimethylamide] | 80.1%
13 | CCCCNC(=O)c1nc(-c2ccc(NC(=O)NCC)nc2)sc1C(=O)NOC [Example 36, N^4-Butyl-2-(6-{[(ethylamino)carbonyl]amino}pyridin-3-yl)-N^5-methoxy-1,3-thiazole-4,5-dicarboxamide] | 4.84%
14 | CCNC(=O)Nc1cc(-c2ccc(C(=O)OCC)cc2)ccn1 [Example 138, ethyl 4-(2-{[(ethylamino)carbonyl]amino}pyridin-4-yl)benzoate] | 94.8%
15 | CCNC(=O)Nc1ccc(-c2nc(C(=O)NCC)c(C(=O)N(C)C)s2)cn1 [Example 61, 2-[6-(3-Ethyl-ureido)-pyridin-3-yl]-thiazole-4,5-dicarboxylic acid 5-dimethylamide 4-ethylamide] | 92.8%
16 | CCCCNC(=O)c1nc(-c2cnc(NC(=O)NCC)cc2-c2nc(CC)cs2)sc1C(=O)O [Example 150, 4-[(butylamino)carbonyl]-2-[6-{[(ethylamino)carbonyl]amino}-4-(4-ethyl-1,3-thiazol-2-yl)pyridin-3-yl]-1,3-thiazole-5-carboxylic acid] | 100%
17 | CCCCNC(=O)c1csc(-c2cnc(NC(=O)NCC)cc2-c2ccccc2)n1 [Example 163, N-butyl-2-(6-{[(ethylamino)carbonyl]amino}-4-phenylpyridin-3-yl)-1,3-thiazole-4-carboxamide] | 97.8%
18 | CCNC(=O)Nc1ccc(-c2nc(C(=O)OCC)cs2)cn1 [Example 2, Ethyl 2-(6-{[(ethylamino)carbonyl]amino}pyridin-3-yl)-1,3-thiazole-4-carboxylate] | 99.1%
19 | CCNC(=O)Nc1ccc(-c2ccc3nc(C)c(C(N)=O)n3c2)cn1 [Example 155, 6-(6-{[(ethylamino)carbonyl]amino}pyridin-3-yl)-2-methylimidazo[1,2-a]pyridine-3-carboxamide] | 82.3%
20 | CCNC(=O)Nc1ccc(-c2nc(C(=O)N(C)C)c(C(=O)NC(C)(C)C)s2)cn1 [Example 159, N^5-(tert-butyl)-2-(6-{[(ethylamino)carbonyl]amino}pyridin-3-yl)-N^4,N^4-dimethyl-1,3-thiazole-4,5-dicarboxamide] | 95.3%
21 | CCNC(=O)Nc1ccc(-c2nc(-c3nccn3C)c(C(=O)O)s2)cn1 [Example 93, 2-(6-{[(Ethylamino)carbonyl]amino}pyridin-3-yl)-4-(1-methyl-1H-imidazol-2-yl)-1,3-thiazole-5-carboxylic acid] | 99.1%

Row | Compound | inhibition at 12.5 µM
22 | CCNC(=O)Nc1cc(-c2nc(C(F)(F)F)cs2)c(-c2cncc(C(=O)NC(C)(C)C)c2)cn1 [Example 123, N-(tert-Butyl)-6′-{[(ethylamino)carbonyl]amino}-4′-[4-(trifluoromethyl)-1,3-thiazol-2-yl]-3,3′-bipyridine-5-carboxamide] | 96.2%
23 | CCNC(=O)Nc1cc(-c2ccc(F)nc2)c(-c2cncc(C(N)=O)c2)cn1 [Example 128, 6′-{[(Ethylamino)carbonyl]amino}-6″-fluoro-3,3′:4′,3″-terpyridine-5-carboxamide] | 91.5%
24 | CCNC(=O)Nc1ncc(-c2cccc(C(=O)O)c2)cn1 [Example 29, 3-(2-{[(Ethylamino)carbonyl]amino}pyrimidin-5-yl)benzoic acid] | 13.6%
25 | CCNC(=O)Nc1cc(-c2ccc(F)nc2)c(-c2cncc(C(=O)OCC)c2)cn1 [Example 86, Ethyl 6′-{[(ethylamino)carbonyl]amino}-6″-fluoro-3,3′:4′,3″-terpyridine-5-carboxylate] | 99.9%
26 | CCNC(=O)Nc1ccc(-c2nc(C(=O)N[C@@H](C)COC)c(C(N)=O)s2)cn1 [Example 117, 2-(6-{[(Ethylamino)carbonyl]amino}pyridin-3-yl)-N^4-[(1S)-2-methoxy-1-methylethyl]-1,3-thiazole-4,5-dicarboxamide] | 101%
27 | CCNC(=O)Nc1ccc(-c2ccc(C(=O)O)cn2)cn1 [Example 21, 6′-{[(Ethylamino)carbonyl]amino}-2,3′-bipyridine-5-carboxylic acid] | 77.1%
28 | CCNC(=O)Nc1ccc(-c2nc(-c3ncnn3C)c(C(=O)OC)s2)cn1 [Example 72, Methyl 2-(6-{[(ethylamino)carbonyl]amino}pyridin-3-yl)-4-(1-methyl-1H-1,2,4-triazol-5-yl)-1,3-thiazole-5-carboxylate] | 80.3%
29 | CCNC(=O)Nc1ccc(-c2nc3cccc(C(=O)OCC)c3s2)cn1 [Example 4, Ethyl 2-(6-{[(ethylamino)carbonyl]amino}pyridin-3-yl)-1,3-benzothiazole-7-carboxylate] | 84%
30 | CCNC(=O)Nc1ccc(-c2ncc(C(N)=O)s2)cn1 [Example 37, 2-(6-{[(Ethylamino)carbonyl]amino}pyridin-3-yl)-1,3-thiazole-5-carboxamide] | 98.9%
31 | CCNC(=O)Nc1cc(-c2nc(CC)cs2)c(-c2cncc(C(=O)NC)c2)cn1 [Example 107, 6′-{[(Ethylamino)carbonyl]amino}-4′-(4-ethyl-1,3-thiazol-2-yl)-N-methyl-3,3′-bipyridine-5-carboxamide] | 84%
32 | CCNC(=O)Nc1ccc(-c2nc(-c3ncnn3C)c(C(N)=O)s2)cn1 [Example 157, 2-(6-{[(ethylamino)carbonyl]amino}pyridin-3-yl)-4-(1-methyl-1H-1,2,4-triazol-5-yl)-1,3-thiazole-5-carboxamide] | 101%
33 | CCCCNC(=O)c1nc(-c2ccc(NC(=O)NCC)nc2)sc1C(=O)OCC [Example 10, Ethyl 4-[(butylamino)carbonyl]-2-(6-{[(ethylamino)carbonyl]amino}pyridin-3-yl)-1,3-thiazole-5-carboxylate] | 92.6%
34 | CCNC(=O)Nc1ccc(-c2nc(C(N)=O)c(C(N)=O)s2)cn1 [Example 152, 2-(6-{[(ethylamino)carbonyl]amino}pyridin-3-yl)-1,3-thiazole-4,5-dicarboxamide] | 69.4%
35 | CCNC(=O)Nc1ncc(-c2nc3cccc(C(=O)OCC)c3s2)cn1 [Example 135, ethyl 2-(2-{[(ethylamino)carbonyl]amino}pyrimidin-5-yl)-1,3-benzothiazole-7-carboxylate] | 0.52%
36 | CCNC(=O)Nc1ccc(-c2nc(C(=O)N(C)C)c(C(=O)NC3CCCC3)s2)cn1 [Example 58, 2-[6-(3-Ethyl-ureido)-pyridin-3-yl]-thiazole-4,5-dicarboxylic acid 5-yclopentylamide 4-dimethylamide] | 89.3%
37 | CCNC(=O)Nc1ccc(-c2ccc(C(=O)OC)cc2)cn1 [Example 7, Methyl 4-(6-{[(ethylamino)carbonyl]amino}pyridin-3-yl)benzoate] | 97.4%
38 | CCNC(=O)Nc1cc(-c2ccccc2)c(-c2cccc(C(=O)O)c2)cn1 [Example 96, 3-(6-{[(Ethylamino)carbonyl]amino}-4-phenylpyridin-3-yl)benzoic acid] | 95.4%
